Structures are written as SMILES. Where two headings read alike, the source gives them in different places.

Test [1] relates to Mycosphaerella graminicola; Anamorph: Septoria tritici. The experiment in a line: Fungicidal activity: Leaf Blotch of Wheat (SEPTTR). In kind it is in vivo. The conditions noted are these: Zymoseptoria tritici, wheat leaf blotch; for pest or weed control at 100 µg/mL: High Volume (100 ppm); for pest or weed control at 121.5 g/ha: Low Volume (121.5 g/H). As for the experimental part:
Evaluation of Fungicidal Activity: Leaf Blotch of Wheat (Mycosphaerella graminicola; Anamorph: Septoria tritici; Bayer Code […]) Technical grades of materials were dissolved in acetone, which were then mixed with nine volumes of water containing 110 ppm Triton X-100. The fungicide solutions were applied onto wheat seedlings using an automated booth sprayer to run-off. All sprayed plants were allowed to air dry prior to further handling. All fungicides were evaluated using the aforementioned method for their activity vs. all target diseases, unless stated otherwise. Wheat leaf blotch and brown rust activity were also evaluated using track spray applications, in which case the fungicides were formulated as EC formulations, containing 0.1% Trycol 5941 in the spray solutions. Wheat plants (variety Yuma) were grown from seed in a greenhouse in 50% mineral soil/50% soil-less Metro mix until the first leaf was fully emerged, with 7-10 seedlings per pot. These plants were inoculated with an aqueous spore suspension of Septoria tritici either prior to or after fungicide treatments. After inoculation the plants were kept in 100% relative humidity (one day in a dark dew chamber followed by two to three days in a lighted dew chamber at 20° C.) to permit spores to germinate and infect the leaf. The plants were then transferred to a greenhouse set at 20° C. for disease to develop. When disease symptoms were fully expressed on the 1st leaves of untreated plants, infection levels were assessed on a scale of 0 to 100 percent disease severity. Percent disease control was calculated using the ratio of disease severity on treated plants relative to untreated plants.

Test [2] deals with Puccinia triticina. The experiment in a line: Fungicidal activity: Wheat Brown Rust (PUCCRT). The class given is in vivo. The conditions noted are these: for pest or weed control at 100 µg/mL: High Volume (100 ppm); for pest or weed control at 121.5 g/ha: Low Volume (121.5 g/H). The protocol:
Technical grades of materials were dissolved in acetone, which were then mixed with nine volumes of water containing 110 ppm Triton X-100. The fungicide solutions were applied onto wheat seedlings using an automated booth sprayer to run-off. All sprayed plants were allowed to air dry prior to further handling. All fungicides were evaluated using the aforementioned method for their activity vs. all target diseases, unless stated otherwise. Wheat leaf blotch and brown rust activity were also evaluated using track spray applications, in which case the fungicides were formulated as EC formulations, containing 0.1% Trycol 5941 in the spray solutions. Wheat plants (variety Yuma) were grown from seed in a greenhouse in 50% mineral soil/50% soil-less Metro mix until the first leaf was fully emerged, with 7-10 seedlings per pot. These plants were inoculated with an aqueous spore suspension of Septoria tritici either prior to or after fungicide treatments. After inoculation the plants were kept in 100% relative humidity (one day in a dark dew chamber followed by two to three days in a lighted dew chamber at 20° C.) to permit spores to germinate and infect the leaf. The plants were then transferred to a greenhouse set at 20° C. for disease to develop. When disease symptoms were fully expressed on the 1st leaves of untreated plants, infection levels were assessed on a scale of 0 to 100 percent disease severity. Percent disease control was calculated using the ratio of disease severity on treated plants relative to untreated plants. Evaluation of Fungicidal Activity: Wheat Brown Rust (Puccinia triticina; Synonym: Puccinia recondite f. Sp. Tritici; Bayer Code PUCCRT) Wheat plants (variety Yuma) were grown from seed in a greenhouse in 50% mineral soil/50% soil-less Metro mix until the first leaf was fully emerged, with 7-10 seedlings per pot. These plants were inoculated with an aqueous spore suspension of Puccinia triticina either prior to or after fungicide treatments. After inoculation the plants were kept in a dark dew room at 22° C. with 100% relative humidity overnight to permit spores to germinate and infect the leaf. The plants were then transferred to a greenhouse set at 24° C. for disease to develop. Fungicide formulation, application and disease assessment followed the procedures as described in the Example A.

The mark [3] stands for this setting: 24 h, 1 Day Protectant, read-out: SEPTTR 1 DP disease control.
The mark [4] stands for this setting: 72 h, 3 Day Curative, read-out: SEPTTR 3 DC disease control.
The mark [5] stands for this setting: 24 h, 1 Day Protectant, read-out: PUCCRT 1 DP disease control.
[6] abbreviates: 72 h, 3 Day Curative, read-out: PUCCRT 3 DC disease control.

With `COc1ccnc(C(=O)N[C@H]2COC[C@H](CCCc3ccccc3)[C@@H](Cc3ccc(OC(F)(F)F)cc3)[C@H](C)OC2=O)c1O` [compound 146], the pest or weed control at 100 µg/mL in test [1] (setting [3]), in test [1] (setting [4]), in test [2] (setting [5]) and in test [2] (setting [6]) was less than 70% each time.

For `COc1ccnc(C(=O)N[C@H]2COC[C@H](Cc3ccccc3)[C@@H](Cc3ccc(F)cc3)[C@H](C)OC2=O)c1OCOC(C)=O` [compound 61], the pest or weed control at 121.5 g/ha in test [1] (setting [3]), in test [1] (setting [4]), in test [2] (setting [5]) and in test [2] (setting [6]) was greater than 70% throughout.

Take `CCOCC(=O)OCOc1c(OC)ccnc1C(=O)N[C@H]1COC[C@H](Cc2ccccc2)[C@@H](Cc2ccccc2)[C@H](C)OC1=O` [compound 28]: the pest or weed control at 121.5 g/ha in test [1] (setting [3]), in test [1] (setting [4]), in test [2] (setting [5]) and in test [2] (setting [6]) was greater than 70% each time.

Consider `COc1ccnc(C(=O)N[C@H]2COC[C@H](Cc3ccc(Cl)cc3)[C@@H](CC(C)C)[C@H](C)OC2=O)c1OCOC(C)=O` [compound 73], for which the pest or weed control at 121.5 g/ha in test [1] (setting [3]) is greater than 70%; in test [1] (setting [4]), greater than 70%; in test [2] (setting [5]) it was greater than 70%; in test [2] (setting [6]) it was less than 70%.

`COc1ccnc(C(=O)N[C@H]2COC[C@H](Cc3ccccc3)[C@@H](CC(C)C)[C@H](C)OC2=O)c1OC(C)=O` [compound 18]: the pest or weed control at 121.5 g/ha in test [1] (setting [3]) is greater than 70%; in test [1] (setting [4]), greater than 70%; in test [2] (setting [5]), greater than 70%; in test [2] (setting [6]), less than 70%.

Consider `CCOCC(=O)OCOc1c(OC)ccnc1C(=O)N[C@H]1COC[C@H](CCCc2ccccc2)[C@@H](Cc2ccc(OC(F)(F)F)cc2)[C@H](C)OC1=O` [compound 77], for which the pest or weed control at 121.5 g/ha in test [1] (setting [3]), in test [1] (setting [4]), in test [2] (setting [5]) and in test [2] (setting [6]) was less than 70% each time.

For the molecule `CCOCC(=O)OCOc1c(OC)ccnc1C(=O)N[C@H]1COC[C@H](CCC(C)C)[C@@H](CCc2ccccc2)[C@H](C)OC1=O` [compound 36], the pest or weed control at 121.5 g/ha in test [1] (setting [3]) was greater than 70%; in test [1] (setting [4]), greater than 70%; in test [2] (setting [5]) it was greater than 70%; in test [2] (setting [6]), less than 70%.

In the case of `COc1ccnc(C(=O)N[C@H]2COC[C@H](Cc3ccccc3)[C@@H](CCc3ccccc3)[C@H](C)OC2=O)c1OCOC(=O)C(C)C` [compound 31], the pest or weed control at 121.5 g/ha in test [1] (setting [3]), in test [1] (setting [4]), in test [2] (setting [5]) and in test [2] (setting [6]) was greater than 70% each time.

Consider `COc1ccnc(C(=O)N[C@H]2COC[C@H](Cc3ccccc3)[C@@H](CC(C)C)[C@H](C)OC2=O)c1OCOC(C)=O` [compound 19], for which the pest or weed control at 121.5 g/ha in test [1] (setting [3]), in test [1] (setting [4]), in test [2] (setting [5]) and in test [2] (setting [6]) was greater than 70% in each case.

For the molecule `CCC[C@H]1COC[C@H](NC(=O)c2nccc(OC)c2OCOC(C)=O)C(=O)O[C@@H](C)[C@@H]1c1ccccc1` [compound 97], the pest or weed control at 121.5 g/ha in test [1] (setting [3]), in test [1] (setting [4]), in test [2] (setting [5]) and in test [2] (setting [6]) was greater than 70% in each case.

For `C=C(C)COC[C@@H]1[C@@H](Cc2ccccc2)COC[C@H](NC(=O)c2nccc(OC)c2O)C(=O)O[C@H]1C` [compound 120], the pest or weed control at 100 µg/mL in test [1] (setting [3]), in test [1] (setting [4]), in test [2] (setting [5]) and in test [2] (setting [6]) was less than 70% each time.

For `CCC[C@H]1COC[C@H](NC(=O)c2nccc(OC)c2O)C(=O)O[C@@H](C)[C@@H]1CC(C)C` [compound 142], the pest or weed control at 100 µg/mL in test [1] (setting [3]), in test [1] (setting [4]), in test [2] (setting [5]) and in test [2] (setting [6]) was less than 70% in each case.

Consider `CCOCC(=O)OCOc1c(OC)ccnc1C(=O)N[C@H]1COC[C@H](Cc2ccccc2)[C@@H](CCc2ccccc2)[C@H](C)OC1=O` [compound 32], for which the pest or weed control at 121.5 g/ha in test [1] (setting [3]), in test [1] (setting [4]), in test [2] (setting [5]) and in test [2] (setting [6]) was greater than 70% throughout.

As for `CCCC[C@@H]1[C@@H](Cc2ccccc2)COC[C@H](NC(=O)c2nccc(OC)c2OCOC(C)=O)C(=O)O[C@H]1C` [compound 14], the pest or weed control at 100 µg/mL in test [1] (setting [3]), in test [1] (setting [4]), in test [2] (setting [5]) and in test [2] (setting [6]) was less than 70% throughout.

Take `COc1ccnc(C(=O)N[C@@H]2COC[C@@H](Cc3ccccc3)[C@H](COCC(C)C)[C@@H](C)OC2=O)c1O` [compound 122]: the pest or weed control at 100 µg/mL in test [1] (setting [3]), in test [1] (setting [4]), in test [2] (setting [5]) and in test [2] (setting [6]) was less than 70% each time.

`CCC[C@H]1COC[C@H](NC(=O)c2nccc(OC)c2OCOC(C)=O)C(=O)O[C@@H](C)[C@@H]1CC(C)C` [compound 63]: the pest or weed control at 121.5 g/ha was less than 70% in test [1] (setting [3]), less than 70% in test [1] (setting [4]), greater than 70% in test [2] (setting [5]) and less than 70% in test [2] (setting [6]).

With `COc1ccnc(C(=O)N[C@H]2COC[C@H](Cc3ccc(C(F)(F)F)cc3)[C@@H](Cc3ccc(OC(F)(F)F)cc3)[C@H](C)OC2=O)c1O` [compound 138], the pest or weed control at 100 µg/mL in test [1] (setting [3]), in test [1] (setting [4]), in test [2] (setting [5]) and in test [2] (setting [6]) was less than 70% throughout.

Consider `COc1ccnc(C(=O)N[C@H]2COC[C@H](Cc3ccccc3)[C@@H](CCc3ccccc3)[C@H](C)OC2=O)c1OC(C)=O` [compound 29], for which the pest or weed control at 121.5 g/ha in test [1] (setting [3]), in test [1] (setting [4]), in test [2] (setting [5]) and in test [2] (setting [6]) was greater than 70% throughout.

On to `COc1ccnc(C(=O)N[C@H]2COC[C@H](Cc3ccc(Cl)cc3)[C@@H](Cc3ccccc3)[C@H](C)OC2=O)c1OCOC(C)=O` [compound 47], for which the pest or weed control at 121.5 g/ha in test [1] (setting [3]), in test [1] (setting [4]), in test [2] (setting [5]) and in test [2] (setting [6]) was greater than 70% throughout.

`COc1ccnc(C(=O)N[C@H]2COC[C@H](CCCc3ccccc3)[C@@H](CC(C)C)[C@H](C)OC2=O)c1OC(C)=O` [compound 62]: the pest or weed control at 121.5 g/ha in test [1] (setting [3]), in test [1] (setting [4]), in test [2] (setting [5]) and in test [2] (setting [6]) was greater than 70% each time.

Regarding `COc1ccnc(C(=O)N[C@H]2COC[C@H](Cc3ccccc3)[C@@H](Cc3ccc(OC(F)(F)F)cc3)[C@H](C)OC2=O)c1OC(C)=O` [compound 50], the pest or weed control at 121.5 g/ha in test [1] (setting [3]) was greater than 70%; in test [1] (setting [4]), less than 70%; in test [2] (setting [5]), greater than 70%; in test [2] (setting [6]) it was less than 70%.
